Source: publication PMC9663589, “Anti-tumor effects of P-LPK-CPT, a peptide-camptothecin conjugate, in colorectal cancer” (Communications Biology, 2022)
Entries after “also recorded” stand apart in the source; their conditions may differ. Where two headings read alike, the source gives them in different places. No end group written: not given here.

Experiments:
LoVo cells = assay: EdU incorporation assay (DNA synthesis); type: cell-based, human
Method: (§1) 96-well plates were seeded at 3000 cells per well and exposed to different treatments. 50 μM EdU labeling medium (RiboBio) was added and incubated for 2 h at 37 °C. The cells were then fixed with 4% […] for 10 min. After being washed with PBS, cells were stained with anti-EdU working solution for 30 min and stained with Hoechst33342 for 10 min. Cells were observed using fluorescent microscopy. The percentage of EdU-positive cells was calculated from five random fields in three wells.

HCT116 cells [1] = assay: EdU incorporation assay (DNA synthesis); type: cell-based, human
Method: as §1

NCM460 cells = assay: EdU incorporation assay (DNA synthesis); type: cell-based, human
Method: as §1

[2] = test system: patient-derived CRC xenograft; assay: CRC patient-derived xenograft (PDX) therapeutic evaluation; type: in vivo, human xenograft in mice; details: HE staining
HCT116 tumors [3] = assay: HCT116 xenograft therapeutic evaluation; details: CPT 5 mg/kg iv twice a week
Method: Female BALB/c nude mice (4–6 weeks with weights of 18–22 g) were obtained from Shanghai Super-B&K Laboratory Animal Corp. Ltd. (Shanghai, China) and kept in specific pathogen free, temperature-controlled isolation. All animal studies were conducted in accordance with the principles and procedures outlined in the Guide for the Care and Use of Laboratory Animals and were approved by Ethics committee. To generate the HCT116 and U87 tumor model, about 1 × 10^6 tumor cells were subcutaneously injected into the right front flank of 4 weeks old athymic nude mice.
The HCT116 tumor-bearing mice were randomly divided into 4 groups (n = 7 for each group). […] The tumors were measured by a vernier caliper twice a week. The weights of the mice were recorded. Then, the mice were sacrificed at the 28th day. The tumors were dissected and weighted. The tumor volumes were calculated to evaluate the therapeutic efficacy.

intestine and liver = assay: Organ histology (Supplementary Fig. 6); type: in vivo, mouse
[4] = test system: Cleaved caspase 3 in colon tissues; assay: Cleaved caspase 3 immunofluorescence in colon tissues (GI toxicity); type: in vivo, mouse; details: PDX mice, CPT eq. 3 mg/kg iv twice a week, colon tissue
HCT116 cells [5] = assay: FITC-peptide binding, confocal fluorescence intensity; type: cell-based, human; details: FITC labeled, immunofluorescence
Method: NCM460, Colo320HSR, HCT116, LoVo, HT29 and SW480 cells were respectively incubated with FITC-labeled P-LPK (Random peptide P-CON) peptides for 2 h at 37 °C and washed with PBS for three times. The cells were fixed with 4% paraformaldehyde for 30 min at room temperature, and then 4,6-diamidino-2-phenylindole (DAPI) was used for nucleic acid stain. A laser scanning confocal microscope was used to visualize the cells. The fluorescence intensity was analyzed using the Image-Pro Plus 6.0 software. For cell localization experiment, 20 μg/ml rhodamine-labeled peptides were incubated with NCM460 and HCT116 for 2 h, and then washed with PBS for three times. After that, the cell membrane was stained with a blue cell membrane probe (Thermo Fisher Scientific, Cat. No. W11263). The binding of Rhodamine-P-LPK to cells and their localization in cells was observed under a confocal microscope.

in vivo [6] = assay: in vivo; design: species or system human xenograft in BALB/c nude mice; details: female, BALB/c nude, mouse, iv, 3.7 MBq, total radioactivity, T/NT ratio
Method: (§2) To obtain ^68Ga, 0.1 M HCl was used to elute a ^68Ge-^68Ga generator. The radioactivity of eluate was monitored. The radioactive elution peak was collected for ^68Ga radiolabeling experiment. An aliquot of 150 μg of compound P-LPK or P-CON was put in a glass vial and dissolved with 0.2 M sodium acetate/acetic acid buffer, pH 3.8. Then ^68GaCl3 tracer was added, and the pH was adjusted to fall in a range of 3.5~4 with 0.1 M NaOH. The solution was stored at room temperature for 0.5 h. The radiochemical purities of ^68Ga-P-LPK and ^68Ga-P-CON were measured with thin-layer chromatography (TLC), using silica gel-impregnated glass fiber stripe (iTLC SG) and 0.25 M sodium citrate/citric acid buffer as mobile phase. ^68GaCl3 was used as a control.
(§3) Each U87 and HCT116 tumor-bearing mouse was injected in a tail vein with 3.7 MBq (100 μCi, 0.1 nmol in 100 μl) of ^68Ga-P-LPK or ^68Ga-P-CON under isoflurane anesthesia (n = 4 per group). For static PET, 5-min scans were acquired at 30 min, 60 min, and 120 min after injection. The maximum radioactivity concentrations within a tumor or an organ were obtained from mean pixel values within the multiple regions of interest (ROI) volume.

HCT116 tumors [7] = assay: in vivo; design: species or system human xenograft in BALB/c nude mice; details: for T/NT ratio, unblock: female, BALB/c nude, mouse, iv, 3.7 MBq
Method: as §2, §3
(§4) For the blocking experiment, unlabeled P-LPK was first injected into mice (n = 3 per group), and 3.7 MBq ^68Ga-P-LPK was then injected. Static PET images were acquired at 30 min, 60 min and 120 min post-injection.

in vivo [8] = assay: in vivo; design: species or system human xenograft in BALB/c nude mice; details: female, BALB/c nude, mouse, iv, 3.7 MBq, total radioactivity, T/NT ratio; remark: listed apart in the source
Method: as §2, §3, §4

HCT116 cells [9] = assay: Endocytosis inhibition assay (FITC-P-LPK internalization); type: cell-based, human; details: 10 µM, 30 min pre-treatment, then FITC-P-LPK 2 h; NC vs CPZ p = 0.0001
Method: Fig. 6 P-LPK bound to SLC1A5 and entered CRC cells through endocytosis. a, b Western blotting analysis of SLC1A5 in NCM460, HCT116, LoVo, SW480, HT29 and Colo320HSR cells. After knocking down SLC1A5 in HCT116 and HT29, the binding intensity of FITC-P-LPK to cells was observed by confocal microscopy. Bar, 10 μm. c, d Effects of different endocytosis inhibitors on the internalization of FITC-P-LPK. HCT116 cells were pre-treated with 10 µM chlorpromazine, 50 μM methyl-β-cyclodextrin, 20 µM Amiloride hydrochloride for 30 min at 37 °C. Subsequently, the cells were incubated with FITC-P-LPK for 2 h. Then the fluorescence intensity was observed by confocal microscopy and detected using a multi-well plate reader (n = 5, means ± SD, NC vs CPZ, p = 0.0001; NC vs MβCD, p = 0.9069; NC vs EIPA, p = 0.9812) (****p < 0.0001). Bar, 10 μm. e The competition experiment with SLC1A5 substrates glutamine. FITC-P-LPK was incubated with increasing concentrations (0–32 mM) of glutamine in HCT116 cells at 37 °C for 2 h. The fluorescence intensity was measured in a multi-well plate reader (n = 5, means ± SD).
Chlorpromazine (CPZ), amiloride (AMI), and methyl-β-cyclodextrin (MCD) were purchased from MedChem Express. […] Then the fluorescence intensity was detected using a multi-well plate reader (BioTek synergy4) and observed by confocal laser scanning microscopy.

recombinant SLC1A5 [10] = biological target: T1, recombinant SLC1A5 (Homo sapiens, UniProt Q15758); assay: Surface plasmon resonance, Biacore T200; type: binding; details: Biacore T200, CM5 chip, peptide 25–400 μM, 1×PBS with 5% DMSO, 0.05% Tween 20, pH 7.4; read-out: KD (SPR)
T1 sequence (Q15758 1-541): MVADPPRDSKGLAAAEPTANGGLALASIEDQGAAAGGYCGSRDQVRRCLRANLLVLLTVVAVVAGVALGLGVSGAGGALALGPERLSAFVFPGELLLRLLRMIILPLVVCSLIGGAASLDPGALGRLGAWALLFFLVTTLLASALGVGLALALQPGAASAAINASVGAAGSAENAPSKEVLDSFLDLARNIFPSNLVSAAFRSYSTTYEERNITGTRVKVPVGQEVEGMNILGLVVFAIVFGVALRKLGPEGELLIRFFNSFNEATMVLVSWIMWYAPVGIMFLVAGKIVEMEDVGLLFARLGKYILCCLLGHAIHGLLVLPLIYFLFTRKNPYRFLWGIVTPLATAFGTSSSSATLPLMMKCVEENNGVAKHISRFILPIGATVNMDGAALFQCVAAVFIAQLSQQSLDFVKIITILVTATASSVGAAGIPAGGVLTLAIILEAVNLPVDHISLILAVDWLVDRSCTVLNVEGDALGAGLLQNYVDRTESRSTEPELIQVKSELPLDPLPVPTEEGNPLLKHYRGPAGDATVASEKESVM
Method: A surface plasmon resonance-based method using the Biacore T200 platform was developed to detect the binding of peptide (25–400 μM) to recombinant SLC1A5. The sensor chip CM5, 1 × PBS (2 mM KH2PO4, 10 mM Na2HPO4, 137 mM NaCl, 2.7 mM KCl) with 5% DMSO, 0.05% Tween 20 buffer (pH 7.4), and the amine coupling kit (which includes EDC, NHS, and ethanolamine reagents) were all obtained from GE Healthcare. The sensor chip CM5 was activated using EDC and NHS reagents, according to the standard procedure for amine coupling. 20 μg/ml SLC1A5 (about 10 μg proteins in 0.5 ml 10 mM Sodium Acetate buffer) was then covalently immobilized to the chip surface CM5 under 10 mM Sodium Acetate (pH 4.5) buffer. The resulting differences in resonance units (RU) were about 4000 RU. After de-activation by ethanolamine and washing with 1×PBS with 5% DMSO, 0.05% Tween 20 buffer (pH 7.4), the prepared sensor chip was applied to Biacore T200 for the binding assay. 1×PBS with 5% DMSO, 0.05% Tween 20 buffer (pH 7.4) was used as running buffer. A one-minute injection of a solution of 10 mM Glycine-HCl, pH 3.0 was used to regenerate the chip surface.

recombinant SLC1A5 [11] = biological target: T2, recombinant SLC1A5 (UniProt Q15758 1-541); assay: SPR; Biacore T200; SLC1A5 covalently immobilised by amine coupling on a CM5 chip (about 4000 RU); peptide 25-400 uM as analyte; running buffer 1x PBS with 5% DMSO, 0.05% Tween 20, pH 7.4; details: both partners purified
T2 construct: glutamine transporter solute carrier 1 family member 5 (SLC1A5, ASCT2), recombinant protein; additional methods are in the Supplementary Material; also called solute carrier 1 family member 5; ASCT2
T2 sequence: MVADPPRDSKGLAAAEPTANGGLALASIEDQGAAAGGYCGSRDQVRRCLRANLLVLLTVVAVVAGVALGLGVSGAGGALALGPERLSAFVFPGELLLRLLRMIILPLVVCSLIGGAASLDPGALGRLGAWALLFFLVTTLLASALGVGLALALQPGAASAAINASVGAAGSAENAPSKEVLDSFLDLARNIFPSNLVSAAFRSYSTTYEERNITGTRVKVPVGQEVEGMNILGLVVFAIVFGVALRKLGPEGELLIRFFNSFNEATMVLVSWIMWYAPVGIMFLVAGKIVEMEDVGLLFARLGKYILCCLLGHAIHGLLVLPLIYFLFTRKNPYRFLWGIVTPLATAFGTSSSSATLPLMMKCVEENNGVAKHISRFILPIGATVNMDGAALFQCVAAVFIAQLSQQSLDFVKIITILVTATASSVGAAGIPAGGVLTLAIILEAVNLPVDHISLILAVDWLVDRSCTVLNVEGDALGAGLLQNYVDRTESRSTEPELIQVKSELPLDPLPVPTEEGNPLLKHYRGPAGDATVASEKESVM

[12] = relative to DMSO = 1, replicate 1
[13] = relative to DMSO = 1, replicate 2
[14] = relative to DMSO = 1, replicate 3

CC[C@@]1(O)C(=O)OCc2c1cc1n(c2=O)Cc2cc3ccccc3nc2-1 [CPT, camptothecin]
Proportion of cells in the DNA synthesis state (LoVo cells; [12]): 0.9805
Proportion of cells in the DNA synthesis state (LoVo cells; [13]): 0.8341
Proportion of cells in the DNA synthesis state (LoVo cells; [14]): 1.054
Proportion of cells in the DNA synthesis state (HCT116 cells [1]; [12]): 1.278
Proportion of cells in the DNA synthesis state (HCT116 cells [1]; [13]): 0.9932
Proportion of cells in the DNA synthesis state (HCT116 cells [1]; [14]): 0.9243
Proportion of cells in the DNA synthesis state (NCM460 cells; [12]): 1.185
Proportion of cells in the DNA synthesis state (NCM460 cells; [13]): 1.136
Proportion of cells in the DNA synthesis state (NCM460 cells; [14]): 0.9381
Tumor histology (cancer cells in tumor tissue) [2]: almost maintained its original morphological features
Mortality during treatment (HCT116 tumors [3]): More than half of the mice; also recorded: more than half of mice treated with CPT died of side effects
Damage to intestine and liver (intestine and liver): significantly increased
Quantification of Cleaved caspase 3 ([4]; CPT vs P-LPK-CPT p = 0.0051, replicate 1): 24
Quantification of Cleaved caspase 3 ([4]; replicate 2): 11
Quantification of Cleaved caspase 3 ([4]; replicate 3): 14
Quantification of Cleaved caspase 3 ([4]; replicate 4): 10
Quantification of Cleaved caspase 3 ([4]; replicate 5): 13
Antitumor activity / cytotoxicity (CRC cells; 10 nM (CPT equivalent)): no obvious toxicity to CRC cells
Antitumor activity / cytotoxicity (CRC cells; 100 nM): obvious cytotoxicity effects

APATVSSDMSLA [FITC-P-MUT]
Fluorescence intensity of mutant peptide bound to cells (HCT116 cells [5]): significantly reduced

LPKTVSSDMSLN [68Ga-P-LPK, metal not drawn]
tissue to tissue ratio at 0.5 h (in vivo [6]): 1.68
tissue to tissue ratio at 1 h (in vivo [6]): 1.47
tissue to tissue ratio at 2 h (in vivo [6]): 1.28
T/NT ratios after blocking (HCT116 tumors [7]): significantly reduced
T/NT ratios vs 68Ga-P-CON (HCT116 tumors [7]): significantly increased
Tumor binding after pre-injection with unlabeled P-LPK (HCT116 tumors [7]): dramatically attenuated
T/NT ratio, unblock (HCT116 tumors [7]; 0.5 h): 0.51
T/NT ratio, unblock (HCT116 tumors [7]; 1 h): 2.47
tissue to tissue ratio at 0.5 h (in vivo [8]): 2.85
tissue to tissue ratio at 1 h (in vivo [8]): 2.38
tissue to tissue ratio at 2 h (in vivo [8]): 1.87
tissue to tissue ratio at 0.5 h (in vivo [8]; block): 0.41
tissue to tissue ratio at 1 h (in vivo [8]; block): 1.17
tissue to tissue ratio at 2 h (in vivo [8]; block): 0.79
tissue to tissue ratio at 0.5 h (in vivo [8]; unblock): 0.82
tissue to tissue ratio at 1 h (in vivo [8]; unblock): 2.91
tissue to tissue ratio at 2 h (in vivo [8]; unblock): 2.31

CN(C)CCCN1c2ccccc2Sc2ccc(Cl)cc21 [CPZ, chlorpromazine]
Effect on cellular internalization of FITC-P-LPK (HCT116 cells [9]): exhibited the highest inhibitory effect; also recorded: remarkably decreased the cellular internalization of FITC-P-LPK

DLPSRTSALASG [P-CON]
Kd (recombinant SLC1A5 [10]): 126 µM

B1: P-LPK peptide (peptide)
peptide: LPKTVSSDMSLN
notes: twelve-residue peptide selected from an M13 phage-display peptide library on CRC cells; Unlabelled peptide, analyte in the SPR experiment; source: synthetic peptide
Kd (recombinant SLC1A5 [11]): ~1.19 µM
